One compound from US20130071936A1, “FRET-BASED ZINC(II) ION INDICATOR” (The Florida State University Research Foundation, Inc., priority 2011, published 2013) can be followed below.

Data set [1] is described as follows: Absorption and fluorescence titration of the indicator with ZnCl2 in CH3CN. It counts as binding. The method, then: FIG. 3 is a graph depicting fluorescence intensity increase (F/F0 at 630 nm) of zinc(II) ion indicator (4) (3.0 μM), with increasing [ZnCl2]. The solid line is the fitting curve of F/F0 vs. [Zn^2+] based on a 1:1 binding isotherm equation. See Zhu, L.; Zhong, Z.; Anslyn, E. V. J. Am. Chem. Soc. 2005, 127, 4260-4269.
FIGS. 4A and 4B are graphs depicting (4A) Absorption spectra for the titration of zinc(II) ion indicator (4) (3.0 μM) with ZnCl2 (0-18 μM) in CH3CN, and (4B) Fluorescence spectral change of zinc(II) ion indicator (4) (3.0 μM) with different concentrations of ZnCl2 (0-18 μM) in CH3CN (λex 400 nm).
FIG. 5 is a graph depicting fluorescence spectral change of zinc(II) ion indicator (4) (2.5 μM) with different concentrations of ZnCl2 (0-16 μM) in CH3CN (λex=600 nm).
The syntheses of the separate FRET donor and acceptor systems (1-3) and indicators for zinc(II) (4, 5) are described in the examples. Absorption spectrum of zinc(II) ion indicator compound (4) in CH3CN consists of two bands over 300 nm (FIG. 4A). The band centered at 346 nm corresponds to the absorption of the bipy-containing FRET donor moiety, which we term the D band. The band centered at 600 nm corresponds to the NDI moiety which is termed the A band. Upon addition of increasing amount of ZnCl2, as a result of zinc(II) coordination at the bipy moiety, the charge-transfer D band undergoes a bathochromic shift from 346 nm to 370 nm. The A band, meanwhile, experiences a slight hypochromic shift.
The fluorescence titration profile of zinc(II) ion indicator compound (4) with ZnCl2 upon excitation at 400 nm is shown in FIG. 4B. […] This signal may have arisen from the direct excitation of the NDI component. Upon addition of increasing amount of ZnCl2 from 0-18 μM, the emission at 630 nm intensifies, and reaches saturation with 12-fold enhancement in integrated intensity (See Table 1 for spectroscopic data). […] These observations are consistent with the involvement of a zinc(II)-modulated intramolecular excitation energy transfer process. Furthermore, the differed sensitivity to excitation wavelength of zinc(II) ion indicator (4) offers an opportunity to correlate [Zn^2+] and fluorescence change ratiometrically. […]
Reagents and solvents were purchased from various commercial sources and used without further purification unless otherwise stated. […] Silica and alumina gel was flame-dried under vacuum to remove absorbed moisture before use. ^1H NMR spectra were recorded at 300 MHz on a Varian Mercury spectrometer. ^13C NMR spectra were recorded at 125 MHz, on a Bruker Avance spectrometer. […] Spectrophotometric and fluorometric titrations were conducted on a Varian Cary 100 Bio UV-Visible Spectrophotometer and a Varian Cary Eclipse Fluorescence Spectrophotometer, respectively, with a 1-cm standard quartz cell. […]

Data set [2] can be described thus: Fluorescence response to various metal ions (metal ion selectivity). The note with it: indicator 3.0 μM, 1:9 water/CH3CN pH 7.2, λex 400 nm. The method, then:
FIG. 8 is a chart depicting fluorescence spectroscopic responses of zinc(II) ion indicator (4) (3.0 μM, λex 400 nm) to various metal ions in 1:9 water/CH3CN mixture at pH 7.2 (30 mM of MOPS buffer). Clear bars represent intensity in the presence of various metal ions (perchlorate salt). Metal ion concentrations of Na^+, K^+, Ca^2+, Mg^2+ were 1.0 mM and for other ions 30 μM. Hatch marked bars represent the fluorescence following subsequent addition of Zn(ClO4)2 (30 μM).
The fluorescence dependence of zinc(II) ion indicator (4) on the identity of metal ion was evaluated (FIG. 8). […] The observed metal ion selectivity can be understood based on the Irving-Williams series and HSAB theory.

In the case of `COCCCNc1cc2c3c(c(NCCOc4ccc(/C=C/c5ccc(-c6ccc(COCCOCCOC)cn6)nc5)cc4)cc4c3c1C(=O)N(CCCOC)C4=O)C(=O)N(CCCOC)C2=O` [Compound (4)], the “enhancement in integrated intensity of emission at 630 nm at saturation” value in data set [1] (CH3CN, ZnCl2 0-18 μM, λex 400 nm) is 12 fold. In addition, in data set [1] (CH3CN, increasing ZnCl2), the “D band absorption after bathochromic shift upon addition of ZnCl2” value was determined as 370 nm. Further, the “fluorescence intensity on variation of zinc(II) concentration when NDI is directly excited” value in data set [1] (CH3CN, λex 600 nm) is reported as “not affected much”. Besides, the Kd in data set [1] (indicator 3.0 μM, F/F0 at 630 nm vs [ZnCl2], fit to 1:1 binding isotherm, read-out: Dissociation constant Kd) stood at 9.1 µM. In addition, in data set [2] (30 μM metal ion), the “fluorescence response to cadmium(II)” value is recorded as “acts similarly to zinc(II) in resulting strong fluorescence from NDI”; the “fluorescence response to iron(II) and copper(II)” value was “quench fluorescence”; the “fluorescence response to manganese(II) and lead(II)” value is reported as “fail to alter the fluorescence”. In addition, the “fluorescence response to alkali and alkaline earth metal ions” value in data set [2] (Na+, K+, Ca2+, Mg2+ 1.0 mM) was “do not elicit a fluorescence response”.
